# According to patent publication US20220168394A1, “METHODS OF INDUCING OR RESTORING IMMUNE TOLERANCE” (INSERM (Institut National de la Santé et de la Recherche …, priority 2019, published 2022):
# Like-named read-outs stand apart in the source and are kept apart here.
# What was measured:
# [1] = tested on: Scurfy mice; assay: Survival of Scurfy mice; assay type: in vivo
# Description: (§1) Scurfy phenotype was obtained by backcrossing on B6. 129S7-Rag1tm1Mom/J background, allowing generation of homozygous XSf/XSfRag1−/− female. Crossing of these females with WT C57BL/6J mice result in the birth only of diseased XSf/Y.Rag1−/+male.
# (§2) First, scurfy mice were treated with an immunosuppressor: Temsirolimus (LC laboratories, Woburn, USA) was injected S.C at the dose of 2 mg/kg at day 8 and day 10 after birth. This treatment was continued twice a week in some experiment. Anti-CD3 Fab'2 (clone 145-2C11, BioXCell, West Lebanon, USA) was injected S.C at 20 μg/day during 5 days at day 8 after birth. Cyclophosphamide (European Pharmacopoeia (EP) Reference Standard, Merck KGaA, Darmstadt, Germany) was injected I.P. at 50, 100, or 150 mg/kg 10 days after birth. At day 10 or day 14, CD4^+CD25^+CD45.1^+cells (containing putative Tregs) or engineered CD4^+T cells (Foxp3.LNGFR or LNGFR) from Scurfy mice were injected at 0.5×10^6, 0.75×10^6 or 1×10^6 of cells respectively via I.P injections. […] In indicated experiments, together with cells, Proleukin (human IL-2, aldesleukine, Novartis) was injected at 1.000 UI/g via I.P and during 5 days then once a week.
# Values are represented as means ±SD, unless stated otherwise. GraphPad Prism 6.0 was used for all statistical analyses. P value was calculated with a confidence interval of 95% to indicate the statistical significance between groups. Statistical test included non-parametric Mann-Whitney test, Fischer exact test or two ways ANOVA depending on the dataset. A P value <0.05 was considered statistically significant. Statistically significant differences between groups are noted in figures with asterisks (*p<0.05, **p<0.01, ***p<0.001, ****p<0.0001). Correlations were performed with a non-parametric Spearman correlation. Survival was analyzed with Log-rank test (Mantel-Cox).
# (§3) As shown in FIGS. 1-7, the inventors compared 7 different experimental protocols to identify the one allowing to test the efficacy of Treg to treat Scurfy autoimmune syndrome. Tregs were sorted on the basis of CD4 and CD25 expression from CD45.1 congenic B6 mice and injected at a dose of 5×10^5 intra-peritoneally at day 10 or 14. The criteria was the scurfy score measured every 3 to 4 days from birth and when signs of efficiency evidenced improved scores for mice transplanted with Tregs, survival was followed. Three drugs were tested as conditioning regimens: Temsirolimus, subcutaneously injected at a dose of 2 mg/kg daily from day 4 to day 28 or from day 4 to day 9 (post-birth), anti-CD3 Fab'2, subcutaneously injected at a dose of 20 micrograms/recipient, daily from day 8 to day 12, Cyclophosphamide at 3 different doses (50, 100 and 150 mg/kg) injected at day 10.
# [2] = tested on: CD4+ T cells; assay: T cell depletion after immunosuppressive drug; design: species or system mice; details: mouse, in vivo
# Description: as §2
# [3] = tested on: Scurfy mice
# Description: as §1, §2, §3
# [4] = tested on: Scurfy mice; remark: listed apart in the source
# Description: as §2, §3
# [5] = first series, Cy 50 mg/kg conditioned Scurfy mice
Compound,"delay of the death of scurfy mice ([1]; cyclophosphamide at all doses (50, 100 and 150 mg/kg) at day 10, no cells)","mean survival [1, 5] [days]","survival following Cy injection ([1]; increased from 30 (untreated mice) to 90 days, p=0.01) [days]","mean survival ([1]; second series, 90 days of follow-up) [days]",CD4 T cells nadir (time after injection) [2] [days],T cells depletion across doses [2],cell count normalized (time after injection) [2] [days],"scurfy score ([3]; mouse, in vivo)",general toxicity ([4]; 50 mg/kg at day 10),general toxicity revealed by the health status of the mice ([4]; 100 and 150 mg/kg at day 10),"toxicity observed ([4]; Cy 50, 100 or 150 at day 10, correlated with dose)",toxicities in young animals ([4]; even low dose of Cy),life expectancy ([1]; Temsirolimus twice a week starting at day 8),"scurfy score ([3]; Temsirolimus twice a week starting at disease onset (day 8), drug alone)","improvement of Scurfy score after the infusion of Tregs ([3]; drug used as conditioning regimen, 5×10^5 Tregs i.p. at day 10 or 14)","effect on auto-immunity in Scurfy settings ([3]; low dose IL-2, 1.000 UI/g)"
"O.O=P1(N(CCCl)CCCl)NCCCO1 (centres unmarked) [Cyclophosphamide, 2-[bis(2-chloroethyl)amino]-tetrahydro-2H-1,3,2-oxazaphosphorine-2-oxide monohydrate]",more than 60 days,39,90,47,4,not different with the three doses,10,more stable scurfy score,absent,general toxicity,growth retardation and a transient alopecia,alopecia and growth retardation,–,–,–,–
CO[C@H]1C[C@@H]2CC[C@@H](C)[C@@](O)(O2)C(=O)C(=O)N2CCCC[C@H]2C(=O)O[C@H]([C@H](C)C[C@@H]2CC[C@@H](OC(=O)C(C)(CO)CO)[C@H](OC)C2)CC(=O)[C@H](C)/C=C(\C)[C@@H](O)[C@@H](OC)C(=O)[C@H](C)C[C@H](C)/C=C/C=C/C=C/1C [Temsirolimus],–,–,–,–,–,–,–,–,–,–,–,–,doubling of life expectancy,reduction of Scurfy score,did not allow to reveal any improvement,–
"IL-2: Proleukin (human IL-2, aldesleukine, Novartis)",–,51,–,–,–,–,–,–,–,–,–,–,–,–,–,did not worsen auto-immunity
